{"source": "patent US6624288B1", "about": "(priority 1997, dated 2003)", "tested_on": "Isolated medial neurons from Aplysia oculifera pleuropedal ganglia", "format": "cell-based", "data": [{"compound": "NC1=N[C@H](O)[C@H]2[C@H]3O[C@]4(O)O[C@@H]([C@@H](O)[C@@]2(N1)[C@@H]4O)[C@]3(O)CO", "note": "[tetrodotoxin]", "values": [{"measurement": "effect on TxI-induced spike prolongation", "result": "reduced the TxI-induced spike prolongation"}]}]}
